# Values of other authors in patent US20190105277A1, “PHARMACEUTICAL COMPOSITION COMPRISING AN ATYPICAL ANTIPSYCHOTIC AGENT AND METHOD FOR THE PREPARATION THEREOF” (PHARMATHEN S.A., priority 2016, published 2019).
# Read-outs that look alike come from different tables or passages of the source.
compound,measurement,setting,value
"Cc1nc2n(c(=O)c1CCN1CCC(c3noc4cc(F)ccc34)CC1)CCCC2O (stereo not drawn) [Paliperidone, 3-[2-[4-(6-fluoro-1,2-benzisoxazol-3-yl)-1-piperidinyl]ethyl]-6,7,8,9-tetrahydro-9-hydroxy-2-methyl-4H-pyrido[1,2-a]pyrimidin-4-one]",solubility,in 0.1N HCl,slightly soluble
same,solubility,in dichloromethane,sparingly soluble
same,solubility,in water,insoluble
